This note sets out measurements from PubChem BioAssay AID1645871.

Structures are written as SMILES. Bounds are passed on as bounds.

The conditions of the data set: pampa; pH 5.0; 30.0 min; 50.0 µM.
Consider `CCOC(=O)c1ccc(NC(=O)CSc2nc3c(cc2C#N)N2CCC3CC2)cc1`, for which the Papp is 236 ×10⁻⁶ cm/s. For the compound `Cc1cccc(N(C)c2nc3ccccc3c3nnc(C)n23)c1`, the Papp was above 1000 ×10⁻⁶ cm/s. Then `CCOC(=O)C1=C(CN(CC)Cc2ccccc2)NC(=O)NC1c1ccc(OC(C)C)cc1` (configuration not stated), with above 1000 ×10⁻⁶ cm/s. As for `C[C@H]1CN(C(=O)Nc2ccc(F)cc2)C[C@@H]1c1nc(-c2ccccc2)no1`, the Papp worked out at 809 ×10⁻⁶ cm/s. Then `O=C(Nc1ccc2c(N3CCOCC3)ncnc2c1)c1cccc(Br)c1`, with 654 ×10⁻⁶ cm/s. Take `CC(C)(C)CN1CCNc2cc(Nc3ccccc3)ncc2C1`: the Papp was 42.2 ×10⁻⁶ cm/s.

`COc1ccc(C(=O)N2CCCC(c3nn(-c4ccc(OC)cc4)c(=O)[nH]3)C2)cc1` (configuration not stated): the apparent permeability coefficient (Papp) came to 255 ×10⁻⁶ cm/s.

As for `Cc1nc(-c2ccccc2)cc([C@H]2CN3CC[C@H]2C[C@@H]3CNC2CCOCC2)n1`, the Papp was determined as 12.9 ×10⁻⁶ cm/s. For `COc1ccc2c(c1)N(C[C@H](C)CN(C)C)c1ccccc1S2` the value was 723 ×10⁻⁶ cm/s; for `CCOc1cc(=O)n2c(c1C(=O)Nc1cc(OC)c(Cl)cc1OC)CCCC2`, 68.7 ×10⁻⁶ cm/s; for `CCOc1ccc(S(=O)(=O)NCc2cccnc2)cc1NC(=O)c1ccccc1F`, 278 ×10⁻⁶ cm/s. With `O=C(NCCCO)c1ccc(-c2ncc3cnc(-c4cccc(F)c4)cn23)cc1`, the Papp was determined as 21.2 ×10⁻⁶ cm/s. For `COc1ccc(NC(=O)c2cc(-c3ccc[nH]3)n[nH]2)cc1OC` the value was 203 ×10⁻⁶ cm/s. As for `CN1CCCN(C(c2ccccc2)c2ccc(Cl)cc2)CC1` (configuration not stated), the Papp is above 1000 ×10⁻⁶ cm/s. For `COc1ccccc1CN1CCNc2cc(Nc3ccccc3)ncc2C1` the value was 22.3 ×10⁻⁶ cm/s; for `O=C(NC1CCCN(c2cc(-c3ccc(F)cc3)[nH]n2)C1)c1ccc2ncccc2c1` (configuration not stated), above 1000 ×10⁻⁶ cm/s; for `O=C(C1CC(=O)N(c2n[nH]c3ccccc23)C1)N1CCC(c2noc3cc(F)ccc23)CC1` (configuration not stated), 635 ×10⁻⁶ cm/s.

On to `CN1CCN(C2=Nc3ccccc3Sc3ccc(Cl)cc32)CC1`, for which the Papp amounted to 887 ×10⁻⁶ cm/s. Then `C=C1[C@@H](C)C2[C@H](Cc3ccccc3)NC(=O)[C@@]23C(/C=C/C[C@H](C)C[C@@](C)(O)/C=C/[C@@H]3OC(C)=O)[C@@H]1O` (some centres not stated), with 55 ×10⁻⁶ cm/s. Then `CCc1ccccc1-n1c(SCC(=O)Nc2ccc(C)cc2)nc2n[nH]c(C)c2c1=N`, with above 1000 ×10⁻⁶ cm/s.

`COc1ccccc1CNS(=O)(=O)c1ccc(-c2cnc(C3CC3)o2)cc1`: the apparent permeability (Papp) was above 1000 ×10⁻⁶ cm/s.

Take `O=C(c1ccc(-c2ncc3cnc(-c4ccccc4)cn23)cc1)N1CCS(=O)(=O)CC1`: the Papp was 22.8 ×10⁻⁶ cm/s.

`COc1cc([C@@H]2c3cc4c(cc3[C@H](O)[C@H]3COC(=O)[C@H]23)OCO4)cc(OC)c1OC` gave a Papp of 262 ×10⁻⁶ cm/s. For `COc1ccc(-n2nc(C3CCCN(C(=O)c4cccc(OC)c4)C3)[nH]c2=O)cc1` (configuration not stated), the Papp was found to be 431 ×10⁻⁶ cm/s. For `Cc1ccccc1N(C)C1CN([S+](=O)([O-])c2cccc(C(F)(F)F)c2)C1` the value was 924 ×10⁻⁶ cm/s; for `Cc1noc(C)c1Cc1ccc(C(=O)N2CCc3c(nc4cc(-c5ccccc5)[nH]n4c3=O)C2)o1`, 9.03 ×10⁻⁶ cm/s; for `COc1ccc(CN2CCNc3cc(Nc4ccccc4)ncc3C2)cn1`, 2.38 ×10⁻⁶ cm/s. For `CCc1cccc(NC(=O)C(Cc2ccccc2)NS(=O)(=O)c2cccs2)c1` (configuration not stated) the value was above 1000 ×10⁻⁶ cm/s; for `COc1ccc(C)cc1Nc1c2c(nc3ccccc13)CCC2`, 293 ×10⁻⁶ cm/s. Then `O=C(CCCN1CCC(n2c(=O)[nH]c3ccccc32)CC1)c1ccc(F)cc1`, with 98.2 ×10⁻⁶ cm/s. Consider `C[C@H]1CN(C(=O)c2nn(C)c3ccccc23)C[C@@H]1c1nc(-c2ccncc2)no1`, for which the Papp was found to be 667 ×10⁻⁶ cm/s. Then `COc1ccc(-n2nc(C3CCN(C(=O)C4CC4)CC3)[nH]c2=O)cc1`, with 130 ×10⁻⁶ cm/s; and `CCOC(=O)NNc1ccc(N(CC)CC(C)O)nn1` (configuration not stated), with 8.57 ×10⁻⁶ cm/s. With `CCC(=O)N1CCN(c2ccc(-n3c(=O)ccc4cnc5ccc(-c6cnc7ccccc7c6)cc5c43)cc2C(F)(F)F)CC1`, the Papp came to 537 ×10⁻⁶ cm/s. Then `Cc1ccc(NC(=O)c2c(N3CCCC3=O)c3cc(C)ccc3n2C)c(C)c1`, with above 1000 ×10⁻⁶ cm/s; and `CNc1oc(-c2cccc(Cl)c2Cl)nc1C#N`, with 589 ×10⁻⁶ cm/s; and `N#Cc1cccc(NC(=O)c2sc3nc4c(cc3c2N)N2CCC4CC2)c1`, with 285 ×10⁻⁶ cm/s. For `Cc1ccc(CNCc2cn[nH]c2-c2ccc(C)cc2)cc1`, the Papp was 410 ×10⁻⁶ cm/s. For `COc1ccc(-c2cc(-c3cccc(NC(C)=O)c3)cn3cncc23)cn1` the value was 45.4 ×10⁻⁶ cm/s; for `Cc1ccc(S(=O)(=O)Nc2ccccc2C(=O)Nc2nc(-c3ccccc3)cs2)cc1`, above 1000 ×10⁻⁶ cm/s. Then `CCOc1ccccc1C(=O)Nc1ncccc1C(=O)Nc1cccc(S(=O)(=O)C(F)(F)F)c1`, with 656 ×10⁻⁶ cm/s; and `COC(=O)[C@@H]1C[C@H](OC(C)=O)C(=O)[C@H]2[C@@]1(C)CC[C@H]1C(=O)O[C@H](c3ccoc3)C[C@]21C`, with 381 ×10⁻⁶ cm/s; and `COc1cccc(-n2nc(C(=O)O)cc2-c2ccc(C3CCCCC3)c(Cl)c2)c1`, with 401 ×10⁻⁶ cm/s.

`CN1CCN(CCCN2c3ccccc3Sc3ccc(S(=O)(=O)N(C)C)cc32)CC1` gave a Papp of 730 ×10⁻⁶ cm/s. As to `CC(C)c1ccccc1-c1nc2c(c(NCc3ccc(-c4cccnc4)cc3)n1)CNC2`, the Papp amounted to 98.7 ×10⁻⁶ cm/s.

The compound `Nc1c(-c2ccccc2)cc[nH]c1=O` showed a Papp of 76.8 ×10⁻⁶ cm/s. Then `Cc1cccc(N2CCN(c3nc4ccccc4c4nnc(C)n34)CC2)c1C`, with above 1000 ×10⁻⁶ cm/s; and `CCn1ncc(NC(=O)Cn2ncc3cc(-c4cccc(OC)c4)ccc32)n1`, with 853 ×10⁻⁶ cm/s.

`COc1ncc(-c2n[nH]c3c2CC(=O)N(c2ccccc2)C3)cn1` came in with a Papp of 42.5 ×10⁻⁶ cm/s. Then `O=C(Nc1cccc(F)c1)c1cc(-c2ccc[nH]2)n[nH]1`, with 75.6 ×10⁻⁶ cm/s; and `CC(C)c1ccc(CC(=O)N2CCCc3ncc(C(=O)Nc4cccnc4)cc32)cc1`, with 932 ×10⁻⁶ cm/s; and `Cc1ccc(-n2nc3c(=O)n(CCCC(=O)NCc4ccccc4F)nc(C)c3c2C)cc1`, with 291 ×10⁻⁶ cm/s. Then `O=C1CN(C(=O)CCC(=O)N2CCc3c(nc4cc(-c5ccccc5)[nH]n4c3=O)C2)c2ccccc2N1`, with 6.84 ×10⁻⁶ cm/s.

Turning to `Cn1ncnc1[C@H]1c2n[nH]c(=O)c3cc(F)cc(c23)N[C@@H]1c1ccc(F)cc1`, the Papp is 46.2 ×10⁻⁶ cm/s. Compound `O=C(NC1CCCc2c1[nH]c1ccccc21)c1ccccc1` (configuration not stated) yielded a Papp of 680 ×10⁻⁶ cm/s. This Papp is about 15-fold higher than that of the compound before. For `Cc1ccccc1S(=O)(=O)N1CCCC(CCC(=O)NCCN(C)C2CCCCC2)C1` (configuration not stated) the value was 32.8 ×10⁻⁶ cm/s; for `Cc1nc2nc(NC(=O)c3ccc(C(C)(C)C)cc3)[nH]n2c(=O)c1Cl`, 83.9 ×10⁻⁶ cm/s; for `CN(C)C(=O)c1nc(-c2ccc(Cl)cc2Cl)c2cnccn12`, above 1000 ×10⁻⁶ cm/s. Then `COC(=O)C1=C(C)NC(C)=C(C(=O)O[C@@H]2CCCN(Cc3ccccc3)C2)[C@@H]1c1cccc([N+](=O)[O-])c1`, with above 1000 ×10⁻⁶ cm/s. For `CCOC(=O)C1CCN(c2ncc(-c3ccc4c(c3)OCCCO4)s2)CC1` the value was above 1000 ×10⁻⁶ cm/s; for `COc1ccccc1-c1nnc2sc(-c3ccc(N(C)C)cc3)nn12`, above 1000 ×10⁻⁶ cm/s. `COc1ccc(C)cc1NS(=O)(=O)c1ccc(-c2cnc(C3CC3)o2)cc1` displayed an apparent permeability coefficient (Papp) of 883 ×10⁻⁶ cm/s. On to `Cc1cccc(S(=O)(=O)c2cn(Cc3ccccc3)c3cc(N4CCCCC4C)c(F)cc3c2=O)c1` (configuration not stated), for which the apparent permeability (Papp) is 485 ×10⁻⁶ cm/s. For `Oc1ccc(CN2CC(CNc3ccccc3)C3(C2)CN(c2ccccc2)C3)cc1` (configuration not stated) the value was above 1000 ×10⁻⁶ cm/s. For `Cc1ccc(-n2ncc3c(NCCCn4ccnc4)ncnc32)cc1Cl` the value was 559 ×10⁻⁶ cm/s; for `COc1ccc(OC)c(Nc2c3c(nc4ccccc24)CCC3)c1`, 129 ×10⁻⁶ cm/s. Then `COc1ccc(-c2noc([C@@H]3Cc4nc[nH]c4CN3C(=O)NC3CCCCC3)n2)cc1`, with 58.2 ×10⁻⁶ cm/s; and `Cc1ccc(NC2=C(c3ccc(C(F)(F)F)cc3)C(=O)c3ccccc32)cc1F`, with 574 ×10⁻⁶ cm/s. For the compound `CCOC(=O)c1ccc(N2C(=O)c3n[nH]c(-c4ccco4)c3C2c2ccc(C)cc2)cc1` (configuration not stated), the Papp was determined as 231 ×10⁻⁶ cm/s. For `NC1(c2ccccc2Cl)CCCCC1=O` (configuration not stated) the value was 11.1 ×10⁻⁶ cm/s; for `CCOc1ccc(OCC)c(NC(=O)C(NS(=O)(=O)c2ccc(Br)s2)c2ccccc2)c1` (configuration not stated), 637 ×10⁻⁶ cm/s; for `O=C(COc1ccccc1)NCC(c1cccs1)S(=O)(=O)c1ccc(Cl)cc1` (configuration not stated), 855 ×10⁻⁶ cm/s. Then `C[C@]1(CO)CN(c2cc(C(=O)Nc3ccc4c(c3)-c3c(c(C(N)=O)nn3-c3ccc(F)cc3)CC4)c(Cl)cn2)C[C@@]1(C)CO`, with 45.6 ×10⁻⁶ cm/s; and `COc1cccc(C(=O)Nc2nnc(S(=O)(=O)N3CCOCC3)s2)c1`, with 787 ×10⁻⁶ cm/s; and `Nc1c(C(=O)Nc2ccc(Cl)cc2)sc2nc3c(cc12)N1CCC3CC1`, with 140 ×10⁻⁶ cm/s. Consider `CCN(c1ccccc1)S(=O)(=O)c1c(C)nc2scc(C)n2c1=O`, for which the apparent permeability coefficient (Papp) is 479 ×10⁻⁶ cm/s. Then `CN1CCN(Cc2ccc(-c3ccc(C(C)(C)C#N)cc3)nc2)CC1`, with 47.3 ×10⁻⁶ cm/s; and `COc1cccc(N2CCN(c3ncc4c(n3)CCN(Cc3ccc(Br)cc3)C4)CC2)c1`, with 939 ×10⁻⁶ cm/s; and `Clc1cccc(COc2cncc(N3CCNCC3)n2)c1`, with 742 ×10⁻⁶ cm/s. For `O=C(O)c1cnc(-c2ccc(F)cc2)nc1-c1ccncc1` the value was 38.3 ×10⁻⁶ cm/s; for `COc1cc2c(Nc3ccc(Br)cc3F)ncnc2cc1OCC1CCN(C)CC1`, 97.3 ×10⁻⁶ cm/s; for `CCN(C(=O)C(NS(=O)(=O)c1ccc(Br)s1)c1ccccc1)c1ccc(C)c(C)c1` (configuration not stated), 110 ×10⁻⁶ cm/s. For `CCOc1ccc(N2CC(c3nc(-c4cc(OC)c(OC)c(OC)c4)no3)CC2=O)cc1` (configuration not stated) the value was above 1000 ×10⁻⁶ cm/s; for `c1cn2cc(-c3ccc4cn[nH]c4c3)nc(Nc3ccc(N4CCOCC4)cc3)c2n1`, above 1000 ×10⁻⁶ cm/s. As for `O=S(=O)(Nc1ccc(-c2cccnc2)c2cccnc12)c1cccc(C(F)(F)F)c1`, the Papp was above 1000 ×10⁻⁶ cm/s. As to `COc1ccc(-n2nc(C3CCCN(C(=O)c4ccc(C)cc4)C3)[nH]c2=O)cc1` (configuration not stated), the Papp came to 603 ×10⁻⁶ cm/s. Then `COC(=O)Nc1nc2ccc(C(=O)c3ccccc3)cc2[nH]1`, with 455 ×10⁻⁶ cm/s. For `Cn1nnnc1Sc1ncnc2scc(-c3ccccc3F)c12` the value was 451 ×10⁻⁶ cm/s. For `Nc1nc2c(s1)C(c1ccc(F)cc1F)CC(=O)N2` (configuration not stated) the value was 5 ×10⁻⁶ cm/s.

As to `COC(=O)c1cccc(NC(=O)c2cnc(-c3ccc(F)cc3)nc2-c2ccncc2)c1`, the apparent permeability (Papp) came out at 671 ×10⁻⁶ cm/s. For the compound `O=c1[nH]c(N2CCOCC2)nc2c1CCN(Cc1cc(Cl)ccc1F)CC2`, the apparent permeability (Papp) stood at 46.3 ×10⁻⁶ cm/s.

`Cc1nn2c(c1-c1ccccc1-c1ccccc1)N(Cc1ccc(C(=O)O)s1)CCC2` yielded a Papp of 523 ×10⁻⁶ cm/s.
